According to PMC12210912, “Pharmacologic properties and inhibitory activity of 6-azasteroids against Mycobacterium leprae in vivo and in vitro” (Microbiology Spectrum, 2025):

Columns and labels:
HepG2 cells = conditions: cited from earlier work
[1] = stability in human liver microsomes; assay type: in vitro ADME; conditions: both sexes, human liver microsomes, pH 7.4, 1 μM, HLM 0.5 mg/mL, 37°C, 1 h, mean of duplicates, read-out: HLM stability t1/2
Description: Experiments were performed by Pharmaron, Inc., China. […] Negative control samples were prepared by replacing the NADPH solution with ultrapure H2O. The negative controls were used to exclude the confounding variable of test compound instability. Experiments involving NADPH were carried out in duplicate. Negative controls were prepared in singlet. Aliquots (90 µL) were taken at 0, 15, 30, 45, and 60 min of incubation. The microsomal reaction in each aliquot was stopped by the addition of four volumes of cold acetonitrile containing internal standards (100 nM alprazolam, 200 nM imipramine, 200 nM labetalol, and 2 µM ketoprofen). The samples were centrifuged at 3,220 × g for 40 min, and an aliquot (90 µL) of the supernatant was mixed with 90 µL of ultrapure H2O. The resulting mixture was used for liquid chromatography–tandem mass spectrometry (LC-MS/MS) analysis (Shimadzu and SCIEX Triple Quad 4500). Peak areas were determined from extracted ion chromatograms. A slope, k, was determined by linear regression analysis of a plot of the natural logarithm of the remaining percentage of the parent drug versus incubation time. The in vitro t1/2 (min) was determined from the slope: in vitro t1/2=−(0.693/k) In vitro t1/2 (min, mean of duplicate determinations) was converted to in vitro intrinsic clearance (in vitro Clint, μL/(min·µg protein)) by means of the following equation : in vitro Clint=(0.693/t1/2)×(volume of incubation (μL)/amount of protein (μg))

M. leprae = assay: Shepard's mouse footpad model: bacilli count and molecular viability; assay type: in vivo, Mycobacterium leprae; conditions: Balb/c mice, 1 month, vehicle median 8.110 × 10^4
Description: Animal experimentation was conducted under approval by the ILSL ethical committee ([…] 02/19). Balb/c female mice with 8-week-old were inoculated with 5 × 10^3 live M. leprae bacilli, strain Thai-53, in both hind footpads, as previously described for the Shepard's model ([25]). Eight groups were tested in the experiment: (i) M. leprae control group (n = 5) inoculated with M. leprae and no additional treatment; (ii) vehicle control group (n = 4) inoculated with M. leprae and treatment with vehicle of the drugs; (iii) regular rifampicin treatment, 10 mg/Kg dose; […] (v) compound 2 treatment (n = 4), 50 mg/kg dose; […] One month after inoculation, mice from the control group were euthanized and the hind footpad was collected to assess the establishment of the infection by bacillary enumeration. At that time point, vehicle or drug treatment was started for the remaining groups. All compounds were administrated by gavage, rifampicin was administered weekly, and the compounds were administered daily (excluding weekends) for 1 month (20 doses). Mice were euthanized 6 h after administration of the last dose, and blood was collected in heparin-coated tubes by cardiac puncture for blood enzyme evaluation and compound 5 measurement by LC/MS in the plasma. The infected hind footpads from each group of mice were excised, homogenized and bacilli enumerated in a 100 μL aliquot as previously described ([26]). The remaining homogenate was centrifuged at 12,000 × g for 15 min, the supernatant was discarded, and the pellet was suspended in 750 μL of RNA later solution (Thermo Fisher Scientific). The homogenized tissue pellet was incubated at 4°C for 16 h and stored at -80°C until determination of M. leprae viability was performed by RT-qPCR ([27], [28]). […] RNA and DNA extractions were performed as previously described ([10], [27]). RNA samples were treated with the Turbo DNA-free kit (Thermo Fisher Scientific), and 1,000 ng of DNAse-treated RNA was then used to synthesize the cDNA using the GoScript kit (Promega, USA).

Structure (SMILES) | IC50 (HepG2 cells) [µM] | half-life at 1 µM [1] [h] | bacillary load in footpad, median (M. leprae; rifampicin 10 mg/kg weekly by gavage) | bacillary load in footpad, median (M. leprae; sub-inhibitory rifampicin 1 mg/kg weekly by gavage)
C[C@]12CCC3C(CN(CCCF)C4CC(=O)CC[C@]34C)C1CCC2C(=O)Nc1cc(C(F)(F)F)ccc1C(F)(F)F (some centres unmarked) [Compound 3] | > 100 | 0.75 | – | –
C[C@]12CCC3C(CN(CCC(F)(F)F)C4CC(=O)CC[C@]34C)C1CCC2C(=O)Nc1cc(C(F)(F)F)ccc1C(F)(F)F (some centres unmarked) [Compound 4] | > 100 | 1.05 | – | –
CCCN1CC2C3CCC(C(=O)NC(c4ccc(F)cc4)c4ccc(F)cc4)[C@@]3(C)CCC2[C@@]2(C)CCC(=O)C=C12 (some centres unmarked) [Compound 6] | > 100 | 5.62 | – | –
CO[C@H]1/C=C/O[C@@]2(C)Oc3c(C)c(O)c4c(O)c(c(/C=N/N5CCN(C)CC5)c(O)c4c3C2=O)NC(=O)/C(C)=C\C=C\[C@H](C)[C@H](O)[C@@H](C)[C@@H](O)[C@@H](C)[C@H](OC(C)=O)[C@@H]1C [rifampicin, reference compound] | – | – | 0.438 × 10^4 | 7.890 × 10^4
